From ChEMBL document CHEMBL1201862, “PubChem BioAssay data set” (2004) come the findings set out here.

In assay [1] the test system is BJ. The assay is described as follows: BJ-TERT fibroblast viability loss – cell-based, RAS-independent, luminescence, dose response (AID 1933). In kind it is functional. The conditions noted are these: Homo sapiens.
Assay [2] can be described thus: DRD fibroblast viability loss – cell-based, non-viral oncogenic, luminescence, dose response (AID 1934). The assay is classed as functional. Particulars: Homo sapiens.
A short description of assay [3]: Counterscreen for AddAB inhibitors: absorbance-based bacterial cell-based high throughput dose response assay for inhibitors of bacterial viability. [Related pubchem assays (depositor defined):AID435030, AID449728, AID449731, AID488942, AID488955, AID488956]. In kind it is functional. (Counterscreens check selectivity or assay interference.)
For assay [4], the system named is BJ. Put plainly: cells. The conditions noted are these: Homo sapiens. The assay is classed as functional, cell-based.
The nature of assay [5]: NIH-3T3 fibroblast cytotoxicity, dose response, cytotoxicity control, cell-based, fluorescence, Alamar Blue, secondary assay (AID 2327).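 Note: NIH-3T3 mouse fibroblasts cultured with fluconazole at 8 µg/mL.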 In kind it is functional.
In assay [6] the target is ATP-dependent molecular chaperone HSP82 (Candida albicans (strain WO-1) (Yeast), UniProt C4YTQ8). Put plainly: steroid-induced GRE reporter decrease in yeast – S. cerevisiae, luminescence, Hsp90 inhibitor project, dose response (AID 2400).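 Note: beta-galactosidase luminescence from glucocorticoid response element reporter as proxy for Hsp90 function; inhibitor potency where signal loss means Hsp90 inhibition.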 The assay is classed as functional, cell-based.
Assay [7] relates to BJ. Put plainly: BJ-TERT-LT-ST fibroblast viability loss – cell-based, RAS-independent, luminescence, dose response (AID 1935).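 Note: BJ fibroblasts immortalized with TERT plus LT and ST oncogenes.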 The assay is classed as functional. The conditions noted are these: Homo sapiens.
The target of assay [8] is Serine/threonine-protein kinase Nek2 (Homo sapiens, UniProt P51955). The assay is classed as functional.
For assay [9], the target named is Protein kinase C zeta type (Homo sapiens, UniProt Q05513). In kind it is functional.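 Note: measured as one member of a broad kinase profiling panel.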
Sequence of Protein kinase C zeta type (Q05513 whole entry): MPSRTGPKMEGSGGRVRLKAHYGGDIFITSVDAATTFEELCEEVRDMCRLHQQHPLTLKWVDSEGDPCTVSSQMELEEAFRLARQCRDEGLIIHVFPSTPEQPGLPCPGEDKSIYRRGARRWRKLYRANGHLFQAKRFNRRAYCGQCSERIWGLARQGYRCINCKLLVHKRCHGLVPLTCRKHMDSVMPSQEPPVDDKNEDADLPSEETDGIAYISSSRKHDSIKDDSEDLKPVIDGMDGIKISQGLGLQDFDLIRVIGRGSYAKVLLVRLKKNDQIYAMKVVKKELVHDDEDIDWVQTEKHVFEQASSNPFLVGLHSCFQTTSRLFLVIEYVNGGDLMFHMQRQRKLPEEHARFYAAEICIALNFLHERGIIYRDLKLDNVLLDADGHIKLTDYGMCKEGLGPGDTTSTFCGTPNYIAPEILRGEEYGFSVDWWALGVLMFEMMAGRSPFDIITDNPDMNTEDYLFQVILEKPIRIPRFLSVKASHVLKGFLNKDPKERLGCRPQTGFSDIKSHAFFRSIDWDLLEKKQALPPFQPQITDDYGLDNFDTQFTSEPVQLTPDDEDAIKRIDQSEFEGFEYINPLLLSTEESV
The target of assay [10] is Hepatocyte growth factor receptor (Homo sapiens, UniProt P08581). The assay is classed as functional.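 Note: kinase panel profiling across the kinome, with MET as the panel member.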
The target in assay [11] is Serine/threonine-protein kinase D3 (Homo sapiens, UniProt O94806). The assay is classed as functional.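 Note: determined within a kinase panel screen, with PRKCN as the panel member.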
The target in assay [12] is Serine/threonine-protein kinase 3 (Homo sapiens, UniProt Q13188). In kind it is functional.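 Note: measured as one member of a kinome-wide kinase panel.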
For assay [13], the target named is Serine/threonine-protein kinase N2 (Homo sapiens, UniProt Q16513). In kind it is functional.
Assay [14] has as its target Tyrosine-protein kinase ITK/TSK (Homo sapiens, UniProt Q08881). The assay is classed as functional.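 Note: affinity for ITK measured as one member of a broad kinase panel profiling binding across the kinome.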
For assay [15], the target named is Mitogen-activated protein kinase 1 (Homo sapiens, UniProt P28482). In kind it is functional.
In assay [16] the target is Mitogen-activated protein kinase kinase kinase kinase 4 (Homo sapiens, UniProt O95819). The assay is classed as functional.
Assay [17] addresses Casein kinase II subunit alpha (Homo sapiens, UniProt P68400). The assay is classed as functional.
The target of assay [18] is Maternal embryonic leucine zipper kinase (Homo sapiens, UniProt Q14680). The assay is classed as functional.
Sequence of Maternal embryonic leucine zipper kinase (Q14680 whole entry): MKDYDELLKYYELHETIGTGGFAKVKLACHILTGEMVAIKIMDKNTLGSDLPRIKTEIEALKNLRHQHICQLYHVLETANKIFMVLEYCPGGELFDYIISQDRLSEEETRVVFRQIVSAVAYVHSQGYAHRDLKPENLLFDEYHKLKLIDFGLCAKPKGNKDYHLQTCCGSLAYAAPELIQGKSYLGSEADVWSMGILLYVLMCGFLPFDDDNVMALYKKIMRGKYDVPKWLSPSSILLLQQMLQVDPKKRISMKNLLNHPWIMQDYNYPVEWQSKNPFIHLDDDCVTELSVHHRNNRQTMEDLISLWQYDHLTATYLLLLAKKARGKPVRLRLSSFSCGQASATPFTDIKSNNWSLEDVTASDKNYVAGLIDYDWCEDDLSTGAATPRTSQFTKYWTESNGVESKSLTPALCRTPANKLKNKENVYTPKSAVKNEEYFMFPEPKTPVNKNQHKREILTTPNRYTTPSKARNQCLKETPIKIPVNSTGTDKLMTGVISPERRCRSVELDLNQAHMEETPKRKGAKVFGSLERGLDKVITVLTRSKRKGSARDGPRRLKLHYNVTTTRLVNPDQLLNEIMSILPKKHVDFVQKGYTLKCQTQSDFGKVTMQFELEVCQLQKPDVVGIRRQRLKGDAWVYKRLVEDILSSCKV
The target of assay [19] is ALK tyrosine kinase receptor (Homo sapiens, UniProt Q9UM73). The assay is classed as functional.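 Note: ALK tested as one member of a kinase panel screen.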
In assay [20] the target is Fibroblast growth factor receptor 1 (Homo sapiens, UniProt P11362). The assay is classed as functional.
Sequence of Fibroblast growth factor receptor 1 (P11362 whole entry): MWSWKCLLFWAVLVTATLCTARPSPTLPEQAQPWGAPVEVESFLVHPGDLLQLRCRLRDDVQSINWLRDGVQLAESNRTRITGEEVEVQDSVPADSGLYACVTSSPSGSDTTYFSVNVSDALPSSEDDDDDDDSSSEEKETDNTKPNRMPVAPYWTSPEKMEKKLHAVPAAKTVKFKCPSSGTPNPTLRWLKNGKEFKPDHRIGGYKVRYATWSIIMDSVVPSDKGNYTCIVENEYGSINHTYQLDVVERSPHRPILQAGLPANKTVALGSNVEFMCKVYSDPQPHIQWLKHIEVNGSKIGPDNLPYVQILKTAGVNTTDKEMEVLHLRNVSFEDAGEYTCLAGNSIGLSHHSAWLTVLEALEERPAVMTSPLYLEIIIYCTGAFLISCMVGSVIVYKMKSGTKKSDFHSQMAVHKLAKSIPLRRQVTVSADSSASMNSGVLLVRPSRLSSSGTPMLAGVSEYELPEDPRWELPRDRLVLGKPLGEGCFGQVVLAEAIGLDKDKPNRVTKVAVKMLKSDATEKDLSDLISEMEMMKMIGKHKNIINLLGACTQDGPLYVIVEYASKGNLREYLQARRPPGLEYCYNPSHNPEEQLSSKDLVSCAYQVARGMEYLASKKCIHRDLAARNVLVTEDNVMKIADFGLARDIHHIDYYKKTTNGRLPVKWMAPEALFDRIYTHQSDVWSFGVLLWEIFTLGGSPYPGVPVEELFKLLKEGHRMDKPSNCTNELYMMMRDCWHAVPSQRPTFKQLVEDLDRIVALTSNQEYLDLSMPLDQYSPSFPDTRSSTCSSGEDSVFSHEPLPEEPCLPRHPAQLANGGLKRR
Assay [21] deals with Vascular endothelial growth factor receptor 1 (Homo sapiens, UniProt P17948). The assay is classed as functional.
Assay [22] has as its target Casein kinase I isoform alpha (Homo sapiens, UniProt P48729). In kind it is functional.
Assay [23] concerns the target Casein kinase I isoform delta (Homo sapiens, UniProt P48730). The assay is classed as functional.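 Note: measured as one member (CSNK1D) of a kinome panel.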
For assay [24], the target named is Mitogen-activated protein kinase 12 (Homo sapiens, UniProt P53778). The assay is classed as functional.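 Note: measured as one member of a kinome-wide kinase profiling panel.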
Assay [25] addresses Insulin-like growth factor 1 receptor (Homo sapiens, UniProt P08069). The assay is described as follows: Navigating the Kinome. Panel member name: IGF1R. The assay is classed as functional.
For assay [26], the target named is Testis-specific serine/threonine-protein kinase 2 (Homo sapiens, UniProt Q96PF2). In kind it is functional.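 Note: part of the Navigating the Kinome panel, target entry STK22B.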
Assay [27] addresses Mitogen-activated protein kinase 9 (Homo sapiens, UniProt P45984). In kind it is functional.
The target of assay [28] is MAP kinase-activated protein kinase 5 (Homo sapiens, UniProt Q8IW41). In kind it is functional.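 Note: measured as one member of a kinome panel.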
The target of assay [29] is Serine/threonine-protein kinase pim-2 (Homo sapiens, UniProt Q9P1W9). In kind it is functional.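 Note: value comes from a broad kinase panel profiling study in which PIM2 was one of the panel members.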
Assay [30] deals with Serine/threonine-protein kinase PLK4 (Homo sapiens, UniProt O00444). In kind it is functional.
Assay [31] has as its target High affinity nerve growth factor receptor (Homo sapiens, UniProt P04629). In kind it is functional.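 Note: NTRK1 tested as one member of a kinome-wide profiling panel.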
The target of assay [32] is MAP kinase-activated protein kinase 2 (Homo sapiens, UniProt P49137). In kind it is functional.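 Note: measured as one member of a kinome-wide kinase panel.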
Sequence of MAP kinase-activated protein kinase 2 (P49137 whole entry): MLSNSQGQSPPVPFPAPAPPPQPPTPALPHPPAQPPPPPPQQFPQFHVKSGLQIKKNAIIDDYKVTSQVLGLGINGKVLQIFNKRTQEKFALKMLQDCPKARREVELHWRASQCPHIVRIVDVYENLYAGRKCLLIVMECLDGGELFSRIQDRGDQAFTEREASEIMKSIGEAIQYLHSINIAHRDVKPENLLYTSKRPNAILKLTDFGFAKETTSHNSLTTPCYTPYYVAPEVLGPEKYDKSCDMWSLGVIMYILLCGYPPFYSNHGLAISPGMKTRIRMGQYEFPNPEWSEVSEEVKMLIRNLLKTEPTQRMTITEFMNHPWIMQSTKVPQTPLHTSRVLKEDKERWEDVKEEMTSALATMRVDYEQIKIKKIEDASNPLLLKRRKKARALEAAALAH
For assay [33], the target named is Calcium/calmodulin-dependent protein kinase type 1 (Homo sapiens, UniProt Q14012). The assay is classed as functional.
The target of assay [34] is Megakaryocyte-associated tyrosine-protein kinase (Homo sapiens, UniProt P42679). In kind it is functional.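 Note: affinity measured as one member of a kinase panel (Navigating the Kinome) against MATK.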
The target of assay [35] is cGMP-dependent protein kinase 1 (Homo sapiens, UniProt Q13976). In kind it is functional.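 Note: value from a kinome panel screen with PRKG1 as the panel member.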
Assay [36] has as its target Phosphorylase b kinase gamma catalytic chain, liver/testis isoform (Homo sapiens, UniProt P15735). The assay is classed as functional.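 Note: PHKG2 measured as one member of a kinome-wide kinase panel.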
Assay [37] deals with Proto-oncogene tyrosine-protein kinase Src (Homo sapiens, UniProt P12931). In kind it is functional.
Assay [38] has as its target Serine/threonine-protein kinase D2 (Homo sapiens, UniProt Q9BZL6). The assay is classed as functional.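 Note: measured against PRKD2 as one member of a kinome-wide kinase profiling panel.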
For assay [39], the target named is Dual specificity tyrosine-phosphorylation-regulated kinase 1A (Homo sapiens, UniProt Q13627). In kind it is functional.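 Note: measured against DYRK1A as one member of a broad kinome profiling panel.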
Assay [40] concerns the target Serine/threonine-protein kinase 17A (Homo sapiens, UniProt Q9UEE5). In kind it is functional.
The target in assay [41] is Homeodomain-interacting protein kinase 4 (Homo sapiens, UniProt Q8NE63). In kind it is functional.
Assay [42] deals with Tyrosine-protein kinase FRK (Homo sapiens, UniProt P42685). In kind it is functional.
Sequence of Tyrosine-protein kinase FRK (P42685 whole entry): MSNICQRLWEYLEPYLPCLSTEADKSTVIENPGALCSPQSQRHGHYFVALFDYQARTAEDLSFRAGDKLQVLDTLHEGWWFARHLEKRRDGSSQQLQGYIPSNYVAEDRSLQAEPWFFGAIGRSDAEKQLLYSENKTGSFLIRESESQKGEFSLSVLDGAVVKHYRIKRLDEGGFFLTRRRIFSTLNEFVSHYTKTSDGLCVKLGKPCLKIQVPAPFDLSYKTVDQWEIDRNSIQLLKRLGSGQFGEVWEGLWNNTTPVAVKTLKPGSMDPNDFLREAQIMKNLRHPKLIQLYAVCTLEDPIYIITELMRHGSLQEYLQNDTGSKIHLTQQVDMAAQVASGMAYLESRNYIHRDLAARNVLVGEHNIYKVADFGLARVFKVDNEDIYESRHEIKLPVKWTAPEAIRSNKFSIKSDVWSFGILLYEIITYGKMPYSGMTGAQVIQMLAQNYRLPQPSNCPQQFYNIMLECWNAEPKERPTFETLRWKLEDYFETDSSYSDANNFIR
The target of assay [43] is Serine/threonine-protein kinase TAO1 (Homo sapiens, UniProt Q7L7X3). The assay is classed as functional.
Assay [44] concerns the target Protein kinase C delta type (Homo sapiens, UniProt Q05655). In kind it is functional.
The target of assay [45] is Epidermal growth factor receptor (Homo sapiens, UniProt P00533).
Sequence of Epidermal growth factor receptor (P00533 whole entry): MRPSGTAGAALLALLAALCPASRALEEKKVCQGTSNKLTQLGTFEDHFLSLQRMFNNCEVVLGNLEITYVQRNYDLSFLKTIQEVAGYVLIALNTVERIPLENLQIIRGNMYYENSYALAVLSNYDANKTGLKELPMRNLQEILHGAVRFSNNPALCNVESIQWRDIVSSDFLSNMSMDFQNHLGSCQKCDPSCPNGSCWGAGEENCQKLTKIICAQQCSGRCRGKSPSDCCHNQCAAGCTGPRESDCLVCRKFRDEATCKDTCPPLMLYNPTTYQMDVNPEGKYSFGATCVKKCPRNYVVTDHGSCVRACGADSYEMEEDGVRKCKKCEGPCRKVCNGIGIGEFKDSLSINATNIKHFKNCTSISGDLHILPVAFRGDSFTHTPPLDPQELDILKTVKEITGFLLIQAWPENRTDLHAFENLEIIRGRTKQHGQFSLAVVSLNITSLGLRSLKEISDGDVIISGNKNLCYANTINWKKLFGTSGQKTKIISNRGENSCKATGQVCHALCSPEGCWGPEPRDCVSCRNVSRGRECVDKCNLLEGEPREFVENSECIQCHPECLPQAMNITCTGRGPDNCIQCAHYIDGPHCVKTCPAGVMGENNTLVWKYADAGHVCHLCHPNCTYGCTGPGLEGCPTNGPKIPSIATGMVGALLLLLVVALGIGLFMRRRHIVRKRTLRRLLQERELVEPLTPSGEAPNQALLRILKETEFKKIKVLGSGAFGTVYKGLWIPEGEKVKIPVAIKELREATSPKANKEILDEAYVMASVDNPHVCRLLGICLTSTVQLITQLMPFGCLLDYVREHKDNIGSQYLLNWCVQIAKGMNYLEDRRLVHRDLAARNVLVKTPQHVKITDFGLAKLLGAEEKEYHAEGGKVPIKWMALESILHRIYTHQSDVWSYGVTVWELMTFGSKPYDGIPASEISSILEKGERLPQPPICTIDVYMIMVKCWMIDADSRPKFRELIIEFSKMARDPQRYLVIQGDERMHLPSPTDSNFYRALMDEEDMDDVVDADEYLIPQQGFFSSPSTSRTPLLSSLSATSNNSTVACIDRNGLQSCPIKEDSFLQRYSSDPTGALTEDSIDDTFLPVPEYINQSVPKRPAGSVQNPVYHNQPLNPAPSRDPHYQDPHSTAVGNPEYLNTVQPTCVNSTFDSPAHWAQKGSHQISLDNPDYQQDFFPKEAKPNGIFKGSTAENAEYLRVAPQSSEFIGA
For assay [46], the target named is cAMP-dependent protein kinase catalytic subunit alpha (Homo sapiens, UniProt P17612). In kind it is functional.
The target in assay [47] is Tyrosine-protein kinase Lck (Homo sapiens, UniProt P06239). The assay is classed as functional.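 Note: lck was assayed as one member of a kinase panel.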

The structures appear in SMILES notation. Activity calls are given as the source filed them.

The EC50 is the concentration giving half of the maximal effect. What is called IC50 is the concentration needed to halve the response being measured. One may read the Ki as the dissociation constant of the complex between target and ligand, obtained from inhibition or displacement.

Sequence of Casein kinase II subunit alpha (P68400 whole entry): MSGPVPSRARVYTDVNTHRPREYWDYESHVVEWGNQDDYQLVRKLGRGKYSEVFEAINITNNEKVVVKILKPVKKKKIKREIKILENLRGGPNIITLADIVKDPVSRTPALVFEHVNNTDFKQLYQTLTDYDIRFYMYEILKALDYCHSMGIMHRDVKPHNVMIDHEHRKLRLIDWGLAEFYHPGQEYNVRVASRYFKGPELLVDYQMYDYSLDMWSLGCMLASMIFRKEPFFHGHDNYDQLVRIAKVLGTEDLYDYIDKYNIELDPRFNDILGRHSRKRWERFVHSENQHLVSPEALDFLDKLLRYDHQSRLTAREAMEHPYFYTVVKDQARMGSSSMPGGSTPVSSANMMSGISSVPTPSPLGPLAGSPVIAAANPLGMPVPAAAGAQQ
Sequence of Phosphorylase b kinase gamma catalytic chain, liver/testis isoform (P15735 whole entry, canonical isoform): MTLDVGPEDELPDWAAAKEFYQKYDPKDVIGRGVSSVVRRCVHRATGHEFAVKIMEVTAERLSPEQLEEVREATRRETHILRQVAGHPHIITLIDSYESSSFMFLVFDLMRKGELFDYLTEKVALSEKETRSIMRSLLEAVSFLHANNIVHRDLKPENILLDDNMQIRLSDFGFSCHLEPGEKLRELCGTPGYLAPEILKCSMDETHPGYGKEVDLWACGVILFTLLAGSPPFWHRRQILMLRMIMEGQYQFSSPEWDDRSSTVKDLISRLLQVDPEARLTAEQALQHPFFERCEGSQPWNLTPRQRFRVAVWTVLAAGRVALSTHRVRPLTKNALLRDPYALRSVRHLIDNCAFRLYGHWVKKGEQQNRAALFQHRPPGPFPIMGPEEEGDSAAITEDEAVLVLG

For `COc1ccc(-c2nnc(NC(=O)c3ccc(F)cc3)o2)cc1`, the EC50 in [1] is 61.7 µM (active); in assay [2], 38.1 µM (active); in assay [4] it was 30.7 µM (active); in assay [5], > 150 µM (inactive); in assay [6], > 150 µM (inactive); in assay [7], > 150 µM (not active). In assay [3], the IC50 was > 118 µM (inactive).
`CCn1c(-c2nonc2N)nc2cnc(Oc3cccc(NC(=O)c4ccc(OCCN5CCOCC5)cc4)c3)cc21` [GSK-269962A]: the Ki in assay [8] was > 10 µM (inactive); in [9], 0.0251 µM (active); in [10], > 3.16 µM (inactive); in [11] it was 2.51 µM (active); in assay [12], > 7.94 µM (inactive); in assay [13] it was 0.0251 µM (active). The Ki was > 1.58 µM (inactive) in [14]; > 7.94 µM (inactive) in [15]; > 10 µM (inactive) in assay [16]; > 6.31 µM (inactive) in assay [17]; > 1.58 µM (inactive) in [18]; > 1.26 µM (inactive) in assay [19]. Further, the Ki in assay [20] is > 5.01 µM (inactive); in assay [21], > 0.398 µM (inactive); in assay [22], > 6.31 µM (inactive); in [23] it was > 7.94 µM (inactive); in assay [24], > 6.31 µM (inactive); in assay [25] it was > 2 µM (inactive). Also, the Ki is > 1.58 µM (inactive) in assay [26]; > 3.98 µM (inactive) in [27]; > 1.58 µM (inactive) in assay [28]; > 1.58 µM (inactive) in assay [29]; 0.316 µM (active) in assay [30]; > 2.51 µM (inactive) in assay [31]. Further, the Ki was > 7.94 µM (inactive) in assay [32]; > 5.01 µM (inactive) in assay [33]; > 2 µM (inactive) in assay [34]; 0.158 µM (active) in assay [35]; > 5.01 µM (inactive) in assay [36]; > 2 µM (inactive) in assay [37]. In addition, the inhibition constant Ki in assay [38] is 2 µM (active); in assay [39], > 6.31 µM (inactive); in assay [40], 0.158 µM (active); in assay [41], 5.01 µM (active); in assay [42], > 2.51 µM (inactive); in assay [43], > 10 µM (inactive). For the same compound, the Ki is 0.00501 µM (active) in assay [44], > 2 µM (inactive) in assay [45], 0.0316 µM (active) in assay [46] and 2.51 µM (active) in assay [47].
